Measured values published in patent US9072734B2, “Quaternary ammonium salt compounds” (Teijin Pharma Limited, priority 2009, dated 2015).
Where a name gives a salt, the structure may show the parent alone.

Assays:
[1] = system: acetylcholine-induced bronchoconstriction in guinea pigs; assay: Effects on acetylcholine-induced bronchoconstriction in guinea pigs; assay type: in vivo, guinea pig; conditions: Cavia porcellus; 24 hours after 25 μg/kg of the compounds were administered; read-out: percentage of bronchoconstriction suppression with respect to the acetylcholine stimulation
Method: These in vivo assays are used to evaluate the bronchoprotective effects based on the M3 muscarinic receptor antagonist activity and the β2 adrenergic receptor agonist activity of test compounds. Hartley male guinea pigs (Nippon SLC, Inc.) weighing about 400-500 g were used. The animals were anesthetized by inhalation of Fluothane (Takeda Pharmaceutical Company Limited) in a plastic box. The test compounds were dissolved in physiological saline containing DMSO, and administered through the nasal cavity into the trachea at a dose of 0.04-25 μg/kg and at a volume of 0.4 mL/kg. For control animals, solvent without a test compound was administered. In general, animals awake several minutes after completion of the administration. The animals were anesthetized with an intraperitoneal administration of 33% urethane/0.8% α-chloralose at a dose of 3 mL/kg. In order to intravenously administer acetylcholine or histamine, a catheter was inserted into the carotid artery. In order to measure artificial respiration and airway ventilation pressure, a cannula was inserted into the trachea. Artificial respiration was applied to the animals at a volume of 10 mL/kg and at a frequency of 60/minute, using a ventilator (Harvard Apparatus). The airway ventilation pressure was measured by the Konzett-Roessler method using a general respiratory function analysis system (M.I.P.S). Prior to administration of acetylcholine or histamine, the airway ventilation pressure was measured and baseline values were recorded. Then, physiological saline was administered through the carotid artery catheter at a volume of 0.4 mL/kg, and the airway ventilation pressure was measured. Bronchoconstrictor response was induced by administering acetylcholine (40 μg/kg, 0.4 mL/kg) or histamine (15 μg/kg, 0.4 mL/kg) through the carotid artery catheter one hour after the administration of the test compounds, and the airway ventilation pressure at the maximum contractile response was recorded. In addition, in order to evaluate duration of action of the test compounds, the above-mentioned dose of acetylcholine or histamine was administered, 1 hour, 6 hours, 12 hours, 18 hours, and 24 hours after the administration of test compounds, and the airway ventilation pressure was measured in the same way. The percentage of suppression by the test compounds with respect to the airway contractile response was calculated according to the following formula. (%) Percentage of the airway constriction suppression=(Airway ventilation pressure of test compound-dosed and acetylcholine- or histamine-dosed animals−Baseline value)/(Airway ventilation pressure of acetylcholine- or histamine-dosed animals−Baseline value)×100
The 50% inhibitory doses (ID50 values) of the test compounds were analyzed by a sigmoidal logistic model using XLfit4 (IDBS, Ltd.) for the percentage of the bronchoconstriction suppression at different doses of the test compounds.

[2] = molecular target: T1, human M3 muscarinic receptor (Homo sapiens, UniProt P20309); assay: Inhibitory effect on methacholine-induced calcium influx, FLIPR assay, CHO-K1 cells stably expressing the human M3 muscarinic receptor; assay type: cell-based; conditions: inhibition of calcium influx induced by methacholine
T1 construct: expressed in transfected cells; host or cells: CHO-K1
T1 sequence (P20309 whole entry): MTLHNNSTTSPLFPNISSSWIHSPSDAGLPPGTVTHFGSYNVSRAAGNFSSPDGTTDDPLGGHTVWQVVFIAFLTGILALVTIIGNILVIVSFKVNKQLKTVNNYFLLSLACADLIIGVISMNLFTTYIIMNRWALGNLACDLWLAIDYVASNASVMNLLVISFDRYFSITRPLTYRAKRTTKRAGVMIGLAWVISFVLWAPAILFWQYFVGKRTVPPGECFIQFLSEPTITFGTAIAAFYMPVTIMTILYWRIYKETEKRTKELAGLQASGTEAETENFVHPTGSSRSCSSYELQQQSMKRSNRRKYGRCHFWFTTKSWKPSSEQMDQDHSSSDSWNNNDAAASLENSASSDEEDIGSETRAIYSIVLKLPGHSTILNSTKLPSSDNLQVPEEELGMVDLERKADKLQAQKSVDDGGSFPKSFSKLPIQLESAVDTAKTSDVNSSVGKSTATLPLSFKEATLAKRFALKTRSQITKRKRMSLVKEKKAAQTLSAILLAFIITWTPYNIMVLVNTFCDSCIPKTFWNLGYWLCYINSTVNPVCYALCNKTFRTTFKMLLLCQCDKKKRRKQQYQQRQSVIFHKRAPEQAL
Method in brief: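 Dye-loaded hM3 CHO-K1 cells were preincubated 180 s with compound solutions prepared at 10 two-fold concentrations (0.01–1000 nM). A 30 nM methacholine solution was then added. Fluorescence was traced for 170 s; max−min signal gave % inhibition against agonist and no-agonist controls, and IC50 came from a four-parameter logistic fit.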

SMILES	inhibition in vivo at 0.025 mg/kg [1] [%]	IC50 [2] [nM]
COc1cc(NC(=O)CCCCc2ccc(-c3ccccc3)c(NC(=O)OC3CC[N+](C)(C)CC3)c2)c(Cl)cc1CNC[C@H](O)c1ccc(O)c2[nH]c(=O)ccc12 [Example 51, 4-({[5-(4-{[2-chloro-4-({[(2R)-2-hydroxy-2-(8-hydroxy-2-oxo-1,2-dihydroquinolin-5-yl)ethyl]amino}methyl)-5-methoxyphenyl]carbamoyl}butyl)-2-phenylphenyl]carbamoyl}oxy)-1,1-dimethylpiperidin-1-ium trifluoroacetate]	≥ 50	13.2
C[N+]1(C)CCC(OC(=O)Nc2cc(CCC(=O)Nc3ccc(CNC[C@H](O)c4ccc(O)c5[nH]c(=O)ccc45)cc3)ccc2-c2ccccc2)CC1 [Example 1, 4-({[5-(2-{[4-({[(2R)-2-hydroxy-2-(8-hydroxy-2-oxo-1,2-dihydroquinolin-5-yl)ethyl]amino}methyl)phenyl]carbamoyl}ethyl)-2-phenylphenyl]carbamoyl}oxy)-1,1-dimethylpiperidin-1-ium trifluoroacetate]	≥ 50	6.4
